The source made the active and inactive calls. The calls are words filed in the database; no cut-off is given here.
Experiments:
Mucor [1] = test: Antimicrobial activity against Mucor at 100 U/disk after 72 to 96 hr by disk diffusion method; type: functional
Rhizopus [2] = test: Antimicrobial activity against Rhizopus at 100 U/disk after 72 to 96 hr by disk diffusion method; type: functional
Nannizzia gypsea [3] = test: Antimicrobial activity against Microsporum gypseum at 100 U/disk after 72 to 96 hr by disk diffusion method; type: functional
Aspergillus flavus [4] = test: Antimicrobial activity against Aspergillus flavus at 100 U/disk after 72 to 96 hr by disk diffusion method; type: functional
Klebsiella pneumoniae [5] = test: Antimicrobial activity against Klebsiella pneumoniae at 5 ug/disk after 24 hr by disk diffusion method; details: read-out: IZ
Shigella flexneri [6] = test: Antimicrobial activity against Shigella flexneri at 5 ug/disc after 24 hr by disk diffusion method; type: functional; details: read-out: IZ
Streptococcus [7] = test: Antimicrobial activity against beta-hemolytic Streptococcus at 5 ug/disk after 24 hr by disk diffusion method; type: functional; details: read-out: IZ
Salmonella typhi [8] = test: Antimicrobial activity against Salmonella enterica subsp. enterica serovar Typhi at 5 ug/disk after 24 hr by disk diffusion method; type: functional; details: read-out: IZ
Pseudomonas [9] = test: Antimicrobial activity against Pseudomonas at 5 ug/disk after 24 hr by disk diffusion method; type: functional; details: read-out: IZ
Vibrio cholerae [10] = test: Antimicrobial activity against Vibrio cholerae at 5 ug/disc after 24 hr by disk diffusion method; type: functional; details: read-out: IZ
Staphylococcus aureus [11] = test: Antimicrobial activity against Staphylococcus aureus at 5 ug/disc after 24 hr by disk diffusion method; details: read-out: IZ
Aspergillus flavus [12] = test: Antimicrobial activity against Aspergillus flavus at 500 ppm after 72 to 96 hr by disk diffusion method; type: functional; details: read-out: IZ
Salmonella typhi [13] = test: Antimicrobial activity against Salmonella enterica subsp. enterica serovar Typhi at 200 ppm after 24 hr by disk diffusion method; type: functional; details: read-out: IZ
Shigella flexneri [14] = test: Antimicrobial activity against Shigella flexneri at 100 ppm after 24 hr by disk diffusion method; type: functional; details: read-out: IZ
Streptococcus [15] = test: Antimicrobial activity against beta-hemolytic Streptococcus at 100 ppm after 24 hr by disk diffusion method; type: functional
Nannizzia gypsea [16] = test: Antimicrobial activity against Microsporum gypseum at 500 ppm after 72 to 96 hr by disk diffusion method; type: functional; details: read-out: IZ
Rhizopus [17] = test: Antimicrobial activity against Rhizopus at 500 ppm after 72 to 96 hr by disk diffusion method; type: functional; details: read-out: IZ
Escherichia coli [18] = test: Antimicrobial activity against Escherichia coli at 500 ppm after 24 hr by disk diffusion method; type: functional; details: read-out: IZ
Aspergillus flavus [19] = test: Antimicrobial activity against Aspergillus flavus at 200 ppm after 72 to 96 hr by disk diffusion method; type: functional; details: read-out: IZ
Klebsiella pneumoniae [20] = test: Antimicrobial activity against Klebsiella pneumoniae at 200 ppm after 24 hr by disk diffusion method; type: functional; details: read-out: IZ
Rhizopus [21] = test: Antimicrobial activity against Rhizopus at 100 ppm after 72 to 96 hr by disk diffusion method; type: functional
Klebsiella pneumoniae [22] = test: Antimicrobial activity against Klebsiella pneumoniae at 500 ppm after 24 hr by disk diffusion method; type: functional; details: read-out: IZ
Vibrio cholerae [23] = test: Antimicrobial activity against Vibrio cholerae at 200 ppm after 24 hr by disk diffusion method; type: functional; details: read-out: IZ
Vibrio cholerae [24] = test: Antimicrobial activity against Vibrio cholerae at 500 ppm after 24 hr by disk diffusion method; type: functional; details: read-out: IZ
Escherichia coli [25] = test: Antimicrobial activity against Escherichia coli at 100 ppm after 24 hr by disk diffusion method; type: functional
Nannizzia gypsea [26] = test: Antimicrobial activity against Microsporum gypseum at 100 ppm after 72 to 96 hr by disk diffusion method; type: functional; details: read-out: IZ
Escherichia coli [27] = test: Antimicrobial activity against Escherichia coli at 200 ppm after 24 hr by disk diffusion method; type: functional; details: read-out: IZ
Staphylococcus aureus [28] = test: Antimicrobial activity against Staphylococcus aureus at 100 ppm after 24 hr by disk diffusion method; type: functional
Mucor [29] = test: Antimicrobial activity against Mucor at 200 ppm after 72 to 96 hr by disk diffusion method; type: functional; details: read-out: IZ
Mucor [30] = test: Antimicrobial activity against Mucor at 500 ppm after 72 to 96 hr by disk diffusion method; type: functional; details: read-out: IZ
Staphylococcus aureus [31] = test: Antimicrobial activity against Staphylococcus aureus at 200 ppm after 24 hr by disk diffusion method; type: functional; details: read-out: IZ
Salmonella typhi [32] = test: Antimicrobial activity against Salmonella enterica subsp. enterica serovar Typhi at 100 ppm after 24 hr by disk diffusion method; type: functional
Salmonella typhi [33] = test: Antimicrobial activity against Salmonella enterica subsp. enterica serovar Typhi at 500 ppm after 24 hr by disk diffusion method; type: functional; details: read-out: IZ
Shigella flexneri [34] = test: Antimicrobial activity against Shigella flexneri at 500 ppm after 24 hr by disk diffusion method; type: functional; details: read-out: IZ
Aspergillus flavus [35] = test: Antimicrobial activity against Aspergillus flavus at 100 ppm after 72 to 96 hr by disk diffusion method; type: functional; details: read-out: IZ
Streptococcus [36] = test: Antimicrobial activity against beta-hemolytic Streptococcus at 500 ppm after 24 hr by disk diffusion method; type: functional; details: read-out: IZ
Vibrio cholerae [37] = test: Antimicrobial activity against Vibrio cholerae at 100 ppm after 24 hr by disk diffusion method; type: functional
Nannizzia gypsea [38] = test: Antimicrobial activity against Microsporum gypseum at 200 ppm after 72 to 96 hr by disk diffusion method; type: functional; details: read-out: IZ
Pseudomonas [39] = test: Antimicrobial activity against Pseudomonas at 200 ppm after 24 hr by disk diffusion method; type: functional; details: read-out: IZ
Pseudomonas [40] = test: Antimicrobial activity against Pseudomonas at 100 ppm after 24 hr by disk diffusion method; type: functional
Mucor [41] = test: Antimicrobial activity against Mucor at 100 ppm after 72 to 96 hr by disk diffusion method; type: functional
Rhizopus [42] = test: Antimicrobial activity against Rhizopus at 200 ppm after 72 to 96 hr by disk diffusion method; type: functional; details: read-out: IZ
Klebsiella pneumoniae [43] = test: Antimicrobial activity against Klebsiella pneumoniae at 100 ppm after 24 hr by disk diffusion method; type: functional
Streptococcus [44] = test: Antimicrobial activity against beta-hemolytic Streptococcus at 200 ppm after 24 hr by disk diffusion method; type: functional; details: read-out: IZ
Pseudomonas [45] = test: Antimicrobial activity against Pseudomonas at 500 ppm after 24 hr by disk diffusion method; type: functional; details: read-out: IZ
Shigella flexneri [46] = test: Antimicrobial activity against Shigella flexneri at 200 ppm after 24 hr by disk diffusion method; type: functional; details: read-out: IZ
Staphylococcus aureus [47] = test: Antimicrobial activity against Staphylococcus aureus at 500 ppm after 24 hr by disk diffusion method; type: functional; details: read-out: IZ

## OC(Cn1cncn1)(Cn1cncn1)c1ccc(F)cc1F [FLUCONAZOLE]
Mucor [1]
  inhibition zone (IZ): 20 mm
Rhizopus [2]
  inhibition zone (IZ): 20 mm
Nannizzia gypsea [3]
  inhibition zone (IZ): 20 mm
Aspergillus flavus [4]
  inhibition zone (IZ): 20 mm

## O=C(O)c1cn(C2CC2)c2cc(N3CCNCC3)c(F)cc2c1=O [CIPROFLOXACIN]
Klebsiella pneumoniae [5]
  zone of inhibition at 5 µg/disc: 26 mm
Shigella flexneri [6]
  zone of inhibition at 5 µg/disc: 23 mm
Streptococcus [7]
  zone of inhibition at 5 µg/disc: 28 mm
Salmonella typhi [8]
  zone of inhibition at 5 µg/disc: 22 mm
Pseudomonas [9]
  zone of inhibition at 5 µg/disc: 23 mm
Vibrio cholerae [10]
  zone of inhibition at 5 µg/disc: 23 mm
Staphylococcus aureus [11]
  zone of inhibition at 5 µg/disc: 25 mm

## O=C(/C=C/c1cccc([N+](=O)[O-])c1)c1ccc(N2CCOCC2)cc1
Aspergillus flavus [12]
  zone of inhibition at 500 ppm: 22 mm
Salmonella typhi [13]
  zone of inhibition at 200 ppm: 12 mm
Shigella flexneri [14]
  zone of inhibition at 100 ppm: 12 mm
Streptococcus [15]
  inhibition zone (IZ): inactive
Nannizzia gypsea [16]
  zone of inhibition at 500 ppm: 22 mm
Rhizopus [17]
  zone of inhibition at 500 ppm: 22 mm
Escherichia coli [18]
  zone of inhibition at 500 ppm: 22 mm
Aspergillus flavus [19]
  zone of inhibition at 200 ppm: 17 mm
Klebsiella pneumoniae [20]
  zone of inhibition at 200 ppm: 17 mm
Rhizopus [21]
  inhibition zone (IZ): inactive
Klebsiella pneumoniae [22]
  zone of inhibition at 500 ppm: 22 mm
Vibrio cholerae [23]
  zone of inhibition at 200 ppm: 12 mm
Vibrio cholerae [24]
  zone of inhibition at 500 ppm: 17 mm
Escherichia coli [25]
  inhibition zone (IZ): inactive
Nannizzia gypsea [26]
  zone of inhibition at 100 ppm: 12 mm
Escherichia coli [27]
  zone of inhibition at 200 ppm: 17 mm
Staphylococcus aureus [28]
  inhibition zone (IZ): inactive
Mucor [29]
  zone of inhibition at 200 ppm: 17 mm
Mucor [30]
  zone of inhibition at 500 ppm: 22 mm
Staphylococcus aureus [31]
  zone of inhibition at 200 ppm: 17 mm
Salmonella typhi [32]
  inhibition zone (IZ): inactive
Salmonella typhi [33]
  zone of inhibition at 500 ppm: 17 mm
Shigella flexneri [34]
  zone of inhibition at 500 ppm: 22 mm
Aspergillus flavus [35]
  zone of inhibition at 100 ppm: 12 mm
Streptococcus [36]
  zone of inhibition at 500 ppm: 22 mm
Vibrio cholerae [37]
  inhibition zone (IZ): inactive
Nannizzia gypsea [38]
  zone of inhibition at 200 ppm: 17 mm
Pseudomonas [39]
  zone of inhibition at 200 ppm: 22 mm
Pseudomonas [40]
  inhibition zone (IZ): inactive
Mucor [41]
  inhibition zone (IZ): inactive
Rhizopus [42]
  zone of inhibition at 200 ppm: 17 mm
Klebsiella pneumoniae [43]
  inhibition zone (IZ): inactive
Streptococcus [44]
  zone of inhibition at 200 ppm: 17 mm
Pseudomonas [45]
  zone of inhibition at 500 ppm: 30 mm
Shigella flexneri [46]
  zone of inhibition at 200 ppm: 17 mm
Staphylococcus aureus [47]
  zone of inhibition at 500 ppm: 22 mm

From ChEMBL document CHEMBL3045021, “Synthesis, antibacterial, and antifungal activities of biolabile (E)-1-(4-morpholinophenyl)-3-aryl-prop-2-en-1-ones” (2009)
